Experimental data published in PubChem BioAssay AID1648 (Sanford-Burnham Center for Chemical Genomics, 2009).
Activity calls are given as the source filed them. No rule for the calls is given here.

These molecules were tested against Serine/threonine-protein kinase mTOR (Homo sapiens) (UniProt P42345) (assay: binders of mTOR FRB domain, biophysical, NMR (AID 1648)). Conditions: NMR binding to FRB domain, chemical shift.
Serine/threonine-protein kinase mTOR (Homo sapiens), sequence (P42345 2015-2114): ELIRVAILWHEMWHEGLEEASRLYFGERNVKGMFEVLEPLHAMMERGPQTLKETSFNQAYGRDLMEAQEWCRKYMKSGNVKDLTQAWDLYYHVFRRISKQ
With C[C@H]1C(=O)O[C@@H]2CCN3CC=C(COC(=O)[C@](C)(O)[C@]1(C)O)[C@H]23 the Kd was > 4 mM (inactive).
O=C1NC(=O)C(Cc2cccs2)C(=O)N1 was tested, and the Kd was > 4 mM (inactive).
With CNc1nnc(CSc2nc(C)cc(C)n2)s1 the Kd was > 4 mM (inactive).
In the case of C=C(C)C1(O)OC(=O)C=C1OC (configuration not stated), the Kd is reported as > 4 mM (inactive).
With Cc1ccc(C)c(S(=O)(=O)NCc2cccnc2)c1 the Kd was > 4 mM (inactive).
For Cn1c(=O)cc(N2CCCCC2)[nH]c1=O, the Kd was > 4 mM (inactive).
For Cn1cc(Cl)c(C(=O)Nc2ccc(F)cc2F)n1, the Kd was > 4 mM (inactive).
With CCSc1nc2ccccc2n1CC(N)=O the Kd was > 4 mM (inactive).
In the case of CC(C)=CCc1c2c(c3occ(-c4ccc(O)c(O)c4)c(=O)c3c1O)C=CC(C)(C)O2, the Kd is reported as > 4 mM (inactive).
In the case of COC(=O)c1cc(-c2c(C)nn(-c3ccccc3)c2C)n[nH]1, the Kd is reported as > 4 mM (inactive).
C[C@]12C=CC(=O)C=C1CCC1C2CC[C@]2(C)C(=O)CCC12 (some centres not stated) was tested, and the Kd was > 4 mM (inactive).
OCc1ccc2c(c1)OCCCO2 was tested, and the Kd was > 4 mM (inactive).
In the case of Cc1oc(-c2ccccc2)cc1C(=O)O, the Kd is reported as > 4 mM (inactive).
With CC(C)[C@@H]1CC[C@@H](C)CC1=O the Kd was > 4 mM (inactive).
With Cc1nc2ccccc2c2c1C(=O)N(N)C2=O the Kd was > 4 mM (inactive).
For OCC1COc2ccccc2C1 (configuration not stated), the Kd was > 4 mM (inactive).
O=C(c1ccc(F)cc1)N1CCN(c2ncccn2)CC1 was tested, and the Kd was > 4 mM (inactive).
For CCCN1CCC(N2CCC(O)CC2)CC1, the Kd was > 4 mM (inactive).
For O=C1CC(=O)N2N=C(c3ccccc3)SC2=N1, the Kd was > 4 mM (inactive).
CN1CCN(c2nc3c(c(=O)[nH]2)CCCC3)CC1 was tested, and the Kd was > 4 mM (inactive).
For O=C1C2CC=C(Cl)CC2C(=O)N1c1ccccc1O (configuration not stated), the Kd was > 4 mM (inactive).
In the case of NC(=O)Cn1cnc2ccccc21, the Kd is reported as > 4 mM (inactive).
With O=C(Nn1cnnc1)c1ccccc1Cl the Kd was > 4 mM (inactive).
With Nc1ccccc1C(=O)N1CCNC(=O)C1 the Kd was > 4 mM (inactive).
In the case of COC(=O)CCSCC(=O)Nc1nnc(C)s1, the Kd is reported as > 4 mM (inactive).
In the case of O=C1CC(N2CCC(O)CC2)C(=O)N1c1ccc(F)cc1 (configuration not stated), the Kd is reported as > 4 mM (inactive).
For O=C(O)C(CO)c1ccccc1 (configuration not stated), the Kd was > 4 mM (inactive).
O=C1NC(=S)N/C1=C\c1ccccc1 was tested, and the Kd was > 4 mM (inactive).
In the case of O=C(Nc1cnccn1)c1ccncc1, the Kd is reported as > 4 mM (inactive).
O=C(Cc1c(F)cccc1Cl)Nc1ccon1 was tested, and the Kd was > 4 mM (inactive).
In the case of CC(C)=CCCC1(C)C=Cc2c(O)c3c(c(CC=C(C)C)c2O1)OC12C(=CC4CC1C(C)(C)OC2(C/C=C(/C)C(=O)O)C4=O)C3=O (configuration not stated), the Kd is reported as > 4 mM (inactive).
For NCCc1c[nH]c2ccccc12, the Kd was > 4 mM (inactive).
Nc1ncnc2nc[nH]c12 was tested, and the Kd was > 4 mM (inactive).
With CCOC(=O)Cc1cc(=O)n2[nH]c(C)cc2n1 the Kd was > 4 mM (inactive).
S=C(c1ccc2c(c1)OCO2)N1CCCC1 was tested, and the Kd was > 4 mM (inactive).
NCc1csc(-c2ccccc2)n1 was tested, and the Kd was > 4 mM (inactive).
For O=C(O)C1=Cc2ccccc2OC1, the Kd was > 4 mM (inactive).
CCOC(=O)c1csc(C2COc3ccccc3O2)n1 (configuration not stated) was tested, and the Kd was > 4 mM (inactive).
Nc1ccc(F)cc1F was tested, and the Kd was > 4 mM (inactive).
OC1CSc2ncnn2C1 (configuration not stated) was tested, and the Kd was > 4 mM (inactive).
Nc1ccc(OCc2ccccc2)cc1 was tested, and the Kd was > 4 mM (inactive).
With CC1(C)CC(=O)c2sc(N)nc2C1 the Kd was > 4 mM (inactive).
For Cc1cc(CN2C(=O)c3ccccc3C2=O)on1, the Kd was > 4 mM (inactive).
CCOC12NC(=O)CC(=O)N1C(c1ccccc1)=CS2 (configuration not stated) was tested, and the Kd was > 4 mM (inactive).
With CCn1nnc(NC(=O)c2ccccc2Br)n1 the Kd was > 4 mM (inactive).
CC(=O)Nc1cc2c(cc1C(=O)C(C)C)OCCO2 was tested, and the Kd was > 4 mM (inactive).
With C=C1C2=CC(=O)O[C@@H](c3ccoc3)[C@]2(C)CCC1[C@@]1(C)C=CC(=O)C(C)(C)[C@@H]1CC(=O)OC (some centres not stated) the Kd was > 4 mM (inactive).
NC(N)=NCCCCN=C(N)N was tested, and the Kd was > 4 mM (inactive).
c1ccc(SCc2nc(-c3cccnc3)no2)cc1 was tested, and the Kd was > 4 mM (inactive).
For O=C(c1ccncc1)c1ccc(Br)cc1, the Kd was > 4 mM (inactive).
With CC1=C(C(N)=O)C(c2ccco2)C(C(N)=O)=C(C)N1 the Kd was > 4 mM (inactive).
O=C(O)C(Cc1cnc[nH]1)N1C(=O)c2ccccc2C1=O (configuration not stated) was tested, and the Kd was > 4 mM (inactive).
For O=C1C2CC=CCC2C(=O)N1c1ccccc1O (configuration not stated), the Kd was > 4 mM (inactive).
With COCC(=O)Nc1c(C(N)=O)oc2ccccc12 the Kd was > 4 mM (inactive).
Cc1occc1C(=O)Nc1sccc1C(N)=O was tested, and the Kd was > 4 mM (inactive).
For O=C1CCC(=O)N1CNc1ccccc1, the Kd was > 4 mM (inactive).
In the case of N/N=C/c1cccnc1, the Kd is reported as > 4 mM (inactive).
For COc1cccc(=O)c2c(C)n(C)c(C)c12, the Kd was > 4 mM (inactive).
For NN1C(=O)CSC1=Nc1ccccc1, the Kd was > 4 mM (inactive).
CC(=O)Nc1sccc1C(=O)NC(N)=O was tested, and the Kd was > 4 mM (inactive).
For CC(=O)Nc1c(C#N)c(C(C)(C)C)cn1C, the Kd was > 4 mM (inactive).
In the case of O=C(Nc1ccc(F)cc1F)c1ccco1, the Kd is reported as > 4 mM (inactive).
With COc1c(O)cc2c(-c3ccccc3)cc(=O)oc2c1OC the Kd was > 4 mM (inactive).
For CC(=O)Oc1cccc2ccc(=O)[nH]c12, the Kd was > 4 mM (inactive).
For Cc1noc(-c2ccccc2)c1C(=O)O, the Kd was > 4 mM (inactive).
CC(=O)O[C@@H]1CC2C(C)(C)[C@H](O)C=C[C@]2(C)C2CC[C@]3(C)C(=CC(=O)O[C@H]3c3ccoc3)[C@@]21C (some centres not stated) was tested, and the Kd was > 4 mM (inactive).
With O=C(O)c1cnc2sc3ccccc3n2c1=O the Kd was > 4 mM (inactive).
With Cc1cc(C(=O)Nc2nnc(C(F)(F)F)s2)no1 the Kd was > 4 mM (inactive).
For O=C1c2cccnc2C(=O)N1Cc1ccc2c(c1)OCO2, the Kd was > 4 mM (inactive).
CSc1nnnn1-c1cccc(O)c1 was tested, and the Kd was > 4 mM (inactive).
COC(=O)c1noc(C)c1C(C)=O was tested, and the Kd was > 4 mM (inactive).
With O=C(CSc1ccnc(=O)[nH]1)NCc1ccco1 the Kd was > 4 mM (inactive).
For O=C1c2cccc3cc(S(=O)(=O)O)cc(c23)C(=O)N1O, the Kd was > 4 mM (inactive).
With COC(=O)c1c(C)c2c(c(C)c1O)OC(=O)c1c(C)c(Cl)c(O)c(Cl)c1O2 the Kd was > 4 mM (inactive).
With CN(C)N1C(=O)C2C3C=CC(O3)C2C1=O (configuration not stated) the Kd was > 4 mM (inactive).
With Cc1cc(C(=O)Nn2cnnc2)cs1 the Kd was > 4 mM (inactive).
In the case of C(=N\c1ncn[nH]1)/c1cccs1, the Kd is reported as > 4 mM (inactive).
For NC(=S)CN1CCCC1=O, the Kd was > 4 mM (inactive).
With NCc1ccc(S(=O)(=O)O)cc1 the Kd was > 4 mM (inactive).
C/C(=N\NC(N)=S)C(=O)O was tested, and the Kd was > 4 mM (inactive).
With Cc1nc(-c2ccc(C(=O)O)s2)cs1 the Kd was > 4 mM (inactive).
For O=C(c1ccco1)N1CCNCC1, the Kd was > 4 mM (inactive).
In the case of CSc1nc(=O)[nH]c2c1CCC2, the Kd is reported as > 4 mM (inactive).
In the case of O=C(Nc1ccccc1)c1cnc2n(c1=O)CCS2, the Kd is reported as > 4 mM (inactive).
For COc1cccc(C(=O)Nc2c(C)n[nH]c2C)c1, the Kd was > 4 mM (inactive).
With Cc1noc(C)c1C(=O)NCc1cccs1 the Kd was > 4 mM (inactive).
For CCP(=O)(CC)c1cccc(C)c1, the Kd was > 4 mM (inactive).
In the case of COc1cc2c(cc1OC)Cc1cc(OC)c(OC)cc1Cc1cc(OC)c(OC)cc1C2, the Kd is reported as > 4 mM (inactive).
For CC(=O)Nc1ccc(N2CCOCC2)cc1, the Kd was > 4 mM (inactive).
With O=C(CSc1nnc2ccccn12)N1CCOCC1 the Kd was > 4 mM (inactive).
In the case of Cc1c(C)[n+]([O-])c(-c2ccc([N+](=O)[O-])cc2)n1O, the Kd is reported as > 4 mM (inactive).
CS(=O)(=O)N1CCN(C(=O)Cc2cccs2)CC1 was tested, and the Kd was > 4 mM (inactive).
With O=C(Nc1cccnc1)N1CCOCC1 the Kd was > 4 mM (inactive).
COC(=O)CCC(C)[C@H]1CCC2C3C(C[C@H](O)[C@@]21C)[C@@]1(C)CC[C@@H](O)C[C@H]1C[C@H]3O (some centres not stated) was tested, and the Kd was > 4 mM (inactive).
With C=CCCCCCCCCCCCC(O)CC(O)CO (configuration not stated) (tested in a mixture with another compound) the Kd was > 4 mM (inactive).
For CSc1ccc(S(=O)(=O)N2CCCC2)cc1, the Kd was > 4 mM (inactive).
In the case of NCCCCN, the Kd is reported as > 4 mM (inactive).
For NC(=O)c1cn(-c2ccccc2)nc1-c1cccnc1, the Kd was > 4 mM (inactive).
In the case of O=C(O)c1ccc2nsnc2c1, the Kd is reported as > 4 mM (inactive).
For O=[n+]1c(CO)c(CO)n([O-])c2ccccc21, the Kd was > 4 mM (inactive).
In the case of CC(=O)O[C@@H]1c2c(ccc3ccc(=O)oc23)OC(C)(C)[C@@H]1OC(=O)CC(C)C, the Kd is reported as > 4 mM (inactive).
In the case of Cc1cc(C)n2nc(-c3cccnc3)nc2n1, the Kd is reported as > 4 mM (inactive).
For O=C1C2CC=CCC2C(=O)N1c1ccccc1 (configuration not stated), the Kd was > 4 mM (inactive).
With N[C@@H](CCC(=O)N[C@@H](CS)C(=O)NCC(=O)O)C(=O)O the Kd was > 4 mM (inactive).
For O=c1[nH]oc2ccccc12, the Kd was > 4 mM (inactive).
With Cn1c(NCc2ccco2)nc2ccccc21 the Kd was > 4 mM (inactive).
In the case of COC(=O)NCc1cc2cc(Cl)ccc2[nH]1, the Kd is reported as > 4 mM (inactive).
CCSc1nnc(-c2ccccc2N)c(=O)[nH]1 was tested, and the Kd was > 4 mM (inactive).
For CCC(C)C(=O)O[C@H]1[C@H](O)C2C(CN3CC(C)CCC3[C@@]2(C)O)C2C[C@]34O[C@]5(O)C(OC(=O)C(C)(O)CC)CC[C@@]3(C)C5C(OC(C)=O)[C@@H](OC(C)=O)C4[C@@]21O (some centres not stated), the Kd was > 4 mM (inactive).
In the case of COc1ccc(C2=CC(=O)C=CC2=O)cc1, the Kd is reported as > 4 mM (inactive).
With CN1CCC(N2CCN(C)CC2)CC1 the Kd was > 4 mM (inactive).
In the case of c1cc2c(cc1[C@H]1OC[C@H]3[C@@H]1CO[C@H]3c1ccc3c(c1)OCO3)OCO2, the Kd is reported as > 4 mM (inactive).
Cc1cc(SCC(=O)Nc2nccs2)nc(=O)[nH]1 was tested, and the Kd was > 4 mM (inactive).
For Cn1ncc(N2CCOCC2)c(Cl)c1=O, the Kd was > 4 mM (inactive).
With COc1ccc([C@@H]2CC(=O)c3c(O)cc(O)cc3O2)cc1O the Kd was > 4 mM (inactive).
CC(C)c1c(O)c(-c2cc3c(c(C(C)C)c2O)CCC2C(C)(C)CCC[C@]32C)cc2c1CCC1C(C)(C)CCC[C@]21C (some centres not stated) was tested, and the Kd was > 4 mM (inactive).
With CCc1ccccc1NC(=O)c1ccoc1C the Kd was > 4 mM (inactive).
